Assay results as given in patent US11878028B1 (HENAN GENUINE BIOTECH CO., LTD., priority 2023, dated 2024).

Columns and labels:
[1] = test system: human lung cancer NCI-H1975 (EGFRL858R/T790M) cell line; experiment: Anti-tumor effect of azvudine with osimertinib in NCI-H1975 subcutaneous xenograft mice (Example 1); type: in vivo, BALB/c nude mice; settings: for Tumor volume on the 28th day of grouping administration: day 28; for Tumor volume on the 28th day of grouping administration / Tumor weight: mean ± standard error; for Tumor weight / Tweight/Cweight: end of experiment; for Tumor weight: combination; for Tweight/Cweight: tumor weight of treatment group / solvent control group
Description: Animals were kept in IVC (independent ventilation system) cages (4 per cage) in SPF grade animal room. The number of animals in the cage, gender, strain, date of receipt, administration regimen, experiment number, group and date of start of the experiment were indicated on the animal information card for each cage. All cages, bedding and drinking water were sterilized before use. Cages, feed and drinking water were changed twice a week. […] The bedding was corn cobs, and was changed twice a week. • Food: Experimental animals had free access to food (irradiation sterilized, dry pelleted food) throughout the whole experimental process. • Drinking water: Experimental animals can freely drink sterilized water. • Cage identification: The number of animals in the cage, gender, strain, date of receipt, • administration regimen, experiment number, group and date of start of the experiment should be indicated on the animal information card for each cage. • Animal identification: Experimental animals were identified with ear tags.
When the cell fusion degree of each bottle reached more than 90%, the cells were digested and resuspended in PBS. The cells were counted to reach a concentration of 5×10^7/ml by using a cell counter, and each mouse was injected with 0.1 ml of cell suspension. The 8th generation cells were inoculated subcutaneously in nude mice. When the tumor grew to about 800 mm^3, the tumor was taken out and cut into a size of 2*2*2 mm^3. The chopped tumor was inoculated on the right back of each mouse. When the average volume of the tumor measured after inoculation reached 100-120 mm^3, grouping administration was started using a random stratified grouping method according to the tumor volume and animal body weight. The lung cancer cell line model was randomly divided into 4 experimental groups with 8 mice in each group. The mice were continuously administered for 28 days after grouping.
(Ti: mean tumor volume of the treatment group on the i^th day of administration, T0: mean tumor volume of the treatment group on the 0th day of administration; Vi: mean tumor volume of the solvent control group on the i^th day of administration, V0: mean tumor volume of the solvent control group on the 0th day of administration)
At the end of the experiment, the surviving animals were euthanized, and the tumor tissue was taken, and weighed to obtain the tumor weight.

[2] = test system: human lung cancer NCI-H1975 (EGFRL858R/T790M) cell line; experiment: Anti-tumor effect of azvudine with doxitinib in NCI-H1975 subcutaneous xenograft mice (Example 2); type: in vivo, BALB/c nude mice; settings: for Tumor volume / Tumor volume on the 20th day: mean ± SEM, azvudine 1 mg/kg, doxitinib […], combination 1 + […]; for Tumor volume: in mm³
Description: Animals were kept in IVC (independent ventilation system) cages (4 per cage) in SPF grade animal room. The number of animals in the cage, gender, strain, date of receipt, administration regimen, experiment number, group and date of start of the experiment were indicated on the animal information card for each cage. All cages, bedding and drinking water were sterilized before use. Cages, feed and drinking water were changed twice a week. The breeding environment and light conditions were as follows: • Temperature: 20˜26° C. • Humidity: 40˜70% • Lighting cycle: 12 hours of light, 12 hours of no light (the light was turned on at 8 am and turned off at 8 pm) • Cage: Cages were made of polycarbonate, with a volume of 325 mm×210 mm×180 mm. The bedding was corn cobs, and was changed twice a week. • Food: Experimental animals had free access to food (irradiation sterilized, dry pelleted food) throughout the whole experimental process. • Drinking water: Experimental animals can freely drink sterilized water. • Cage identification: The number of animals in the cage, gender, strain, date of receipt, • administration regimen, experiment number, group and date of start of the experiment should be indicated on the animal information card for each cage. • Animal identification: Experimental animals were identified with ear tags.
NCI-H1975 cells were cultured in RPMI 1640 medium containing 10% fetal bovine serum in a 37° C. and 5% CO2 incubator. The cells were routinely passaged once a week. When the cell saturation reached 80%-90% and the number achieved the requirement, the cells were collected, counted and inoculated.
0.1 mL (5×10^6) of NCI-H1975 cells were subcutaneously inoculated on the right back of each mouse, and the grouping administration was started when the average tumor volume reached about 154 mm 3.
The experimental index was to investigate whether tumor growth was inhibited, delayed or cured. Tumor diameter was measured with a vernier caliper twice a week or every other day. The tumor volume was calculated according to the formula of: V=0.5a×b^2, where a and b represented the long diameter and short diameter of the tumor, respectively.
The anti-tumor efficacy of the compounds was evaluated by TGI (%) or relative tumor proliferation rate T/C (%). TGI (%) reflected the inhibition rate of tumor growth.
Relative tumor proliferation rate T/C (%) was calculated according to the formula as follows: T/C %=TRTV/CRTV×100% (TRTV represented the average RTV of the treatment group; CRTV Represented the Average RTV of the Negative Control Group). Relative Tumor Volume (RTV) was calculated based on the results of measurement of tumor according to the formula of RTV=Vt/V0, where V0 represented the tumor volume measured during grouping administration (i.e. d0), and Vt represented the tumor volume obtained in a certain measurement, and TRTV and CRTV were collected from the data on the same day.
Statistical analysis included mean and standard error (SEM) of tumor volume at each time point for each group (see Table 3 for specific data). […] The comparison between two groups was analyzed by T-test, and the comparison between three or more groups was analyzed by one-way ANOVA. All data analysis was performed with Prism. p<0.05 was considered significant difference.

[3] = azvudine 1 mpk, osimertinib 2.5 mpk, combination 2.5 + 1 mpk
[4] = azvudine 1 mpk, osimertinib 2.5 mpk
[5] = based on tumor volume on the 20th day after administration

Row | Compound | Effect on tumor proliferation (in words) ([1]; NCI-H1975 tumor-bearing mouse model) | TGITV (tumor volume inhibition rate) ([1]; after 28 days of administration, azvudine 1 mpk, osimertinib 2.5 mpk, combination 2.5 + 1 mpk) | TGITV (tumor volume inhibition rate) ([1]; after 28 days of administration, azvudine 1 mpk, osimertinib 2.5 mpk, combination 2.5 + 1 mpk, listed as azvudine) | Tumor volume on the 28th day of grouping administration [1, 3] | Tumor weight [1, 4] | Tweight/Cweight [1] | Effect on tumor growth (in words) ([2]; NCI-H1975 xenograft tumor mouse model) | TGI [2, 5] | Tumor volume ([2]; day 0 after administration) | Tumor volume ([2]; day 3 after administration) | Tumor volume ([2]; day 6 after administration) | Tumor volume ([2]; day 10 after administration) | Tumor volume ([2]; day 13 after administration) | Tumor volume ([2]; day 17 after administration) | Tumor volume on the 20th day ([2]; day 20 after administration) | Tumor volume ([2]; day 20 after administration) | Tumor volume ([2]; day 24 after administration) | TGITV (tumor volume inhibition rate) ([1]; mouse, in vivo) | T/C (relative tumor proliferation rate) [2, 5]
1 | [N-]=[N+]=N[C@]1(CO)O[C@@H](n2ccc(N)nc2=O)[C@@H](F)[C@@H]1O [Azvudine, azvudine] | inhibitory effect on tumor proliferation in a dose-dependent manner | 35.7% | 35.7% | 628.3 ± 165.4 mm^3 | 879.3 ± 226.9 mg | 49.5% | inhibitory effect on tumor growth in a dose-dependent manner | 54.01% | 154 ± 11 | 252 ± 25 | 447 ± 46 | 614 ± 78 | 774 ± 106 | 1,102 ± 118 | 1,396 ± 162 mm3 | 1,396 ± 162 | 2,382 ± 305 | – | –
2 | C=CC(=O)Nc1cc(Nc2nccc(-c3cn(C)c4ccccc34)n2)c(OC)cc1N(C)CCN(C)C [Osimertinib, osimertinib] | – | – | – | 377.9 ± 90.8 mm^3 | 716.9 ± 207.4 mg | 40.3% | – | – | – | – | – | – | – | – | – | – | – | 66.4% | –
3 | doxitinib | – | – | – | – | – | – | – | 87.50% | 154 ± 12 | 180 ± 19 | 232 ± 27 | 277 ± 34 | 350 ± 65 | 395 ± 86 | 492 ± 109 mm3 | 492 ± 109 | 802 ± 220 | – | 15.77%
